In ChEMBL document CHEMBL1201862, “PubChem BioAssay data set” (2004):
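The compound was tested at five concentrations on cells cultured in 96-well plates, with a 48-hour exposure period. Here, GI50 denotes the concentration required for 50% inhibition of growth.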 Active and inactive are the calls of the source. Rule as the data show it: active = GI50 up to about 1.1 µM and inactive = higher.

Assays:
Assay in all cases: DTP human tumour cell line panel, 48 h
SK-MEL-5 = system: SK-MEL-5
K562 = system: K562
CAKI-1 = system: CAKI-1
SK-OV-3 = system: SK-OV-3
SN12C = system: SN12C
EKVX = system: EKVX
A498 = system: A498
SW-620 = system: SW-620
HT-29 = system: HT-29
MDA-MB-231 = system: MDA-MB-231
SK-MEL-2 = system: SK-MEL-2
IGROV-1 = system: IGROV-1
CCRF-CEM = system: CCRF-CEM
HOP-62 = system: HOP-62
MDA-MB-435 = system: MDA-MB-435
ACHN = system: ACHN
Hs-578T = system: Hs-578T
NCI-H23 = system: NCI-H23
HCT-15 = system: HCT-15
MOLT-4 = system: MOLT-4
A549 = system: A549
UO-31 = system: UO-31
HOP-92 = system: HOP-92
TK-10 = system: TK-10
KM12 = system: KM12
M14 = system: M14
HL-60 = system: HL-60
SNB-19 = system: SNB-19
OVCAR-5 = system: OVCAR-5
SF-268 = system: SF-268
RXF 393 = system: RXF 393
BT-549 = system: BT-549
MCF7 = system: MCF7
OVCAR-8 = system: OVCAR-8
NCI-H522 = system: NCI-H522
Malme-3M = system: Malme-3M
SF-295 = system: SF-295
DU-145 = system: DU-145
COLO 205 = system: COLO 205
SK-MEL-28 = system: SK-MEL-28
OVCAR-3 = system: OVCAR-3
786-0 = system: 786-0
PC-3 = system: PC-3
NCI/ADR-RES = system: NCI/ADR-RES
UACC-62 = system: UACC-62
SNB-75 = system: SNB-75
U-251 = system: U-251
LOX IMVI = system: LOX IMVI
HCT-116 = system: HCT-116
OVCAR-4 = system: OVCAR-4
T47D = system: T47D
RPMI-8226 = system: RPMI-8226
NCI-H460 = system: NCI-H460
NCI-H226 = system: NCI-H226
SR = system: SR
UACC-257 = system: UACC-257
HCC 2998 = system: HCC 2998
SF-539 = system: SF-539

Measured: GI50

O=S(=O)(Nc1nccs1)c1ccc([As](=O)(O)O)cc1
> 100 µM: HCT-15
inactive: SK-MEL-5 > 100 µM | K562 > 100 µM | CAKI-1 > 100 µM | SK-OV-3 > 100 µM | SN12C > 100 µM | EKVX > 100 µM | A498 > 100 µM | SW-620 > 100 µM | HT-29 > 100 µM | MDA-MB-231 > 100 µM | SK-MEL-2 > 100 µM | IGROV-1 > 100 µM | CCRF-CEM > 100 µM | HOP-62 > 100 µM | MDA-MB-435 > 100 µM | ACHN > 100 µM | Hs-578T > 100 µM | NCI-H23 > 100 µM | MOLT-4 > 100 µM | A549 > 100 µM | UO-31 > 100 µM | HOP-92 > 100 µM | TK-10 > 100 µM | KM12 > 100 µM | M14 > 100 µM | HL-60 > 100 µM | SNB-19 > 100 µM | OVCAR-5 > 100 µM | SF-268 > 100 µM | RXF 393 > 100 µM | BT-549 > 100 µM | MCF7 > 100 µM | OVCAR-8 > 100 µM | NCI-H522 > 100 µM | Malme-3M > 100 µM | SF-295 > 100 µM | DU-145 > 100 µM | COLO 205 > 100 µM | SK-MEL-28 > 100 µM | OVCAR-3 > 100 µM | 786-0 > 100 µM | PC-3 > 100 µM | NCI/ADR-RES > 100 µM | UACC-62 > 100 µM | SNB-75 > 100 µM | U-251 > 100 µM | LOX IMVI > 100 µM | HCT-116 > 100 µM | OVCAR-4 > 100 µM | T47D > 100 µM | RPMI-8226 > 100 µM | NCI-H460 > 100 µM | NCI-H226 > 100 µM

[O-][S+](Nc1ccccc1)c1ccc(N2CCOCC2)cc1 (centres undefined)
inactive: SK-MEL-5 39.8 µM | K562 27.3 µM | SR 60.3 µM | SN12C > 100 µM | EKVX 94.6 µM | SW-620 30.1 µM | HT-29 36.3 µM | MDA-MB-231 86.7 µM | SK-MEL-2 > 100 µM | IGROV-1 13.6 µM | CCRF-CEM 54.2 µM | HOP-62 > 100 µM | MDA-MB-435 32.7 µM | UACC-257 34.2 µM | ACHN 65.8 µM | Hs-578T > 100 µM | NCI-H23 > 100 µM | MOLT-4 44.7 µM | A549 43.9 µM | UO-31 10.8 µM | TK-10 > 100 µM | KM12 23.6 µM | M14 > 100 µM | HL-60 53.8 µM | SNB-19 > 100 µM | OVCAR-5 > 10 µM | SF-268 15.4 µM | BT-549 6.82 µM | MCF7 57.4 µM | OVCAR-8 > 100 µM | NCI-H522 32.8 µM | Malme-3M 36.4 µM | SF-295 > 100 µM | DU-145 51.4 µM | COLO 205 59.6 µM | SK-MEL-28 > 100 µM | OVCAR-3 > 100 µM | 786-0 88.9 µM | NCI/ADR-RES 51.9 µM | HCC 2998 91.2 µM | UACC-62 9.12 µM | SF-539 35.8 µM | U-251 > 100 µM | LOX IMVI 71 µM | HCT-116 21.2 µM | OVCAR-4 > 100 µM | T47D 13.7 µM | RPMI-8226 58.7 µM | NCI-H460 42.6 µM | NCI-H226 > 100 µM
13 µM: HCT-15

O/N=C(\C=N\O)c1ccc2c(c1)Sc1ccccc1O2
25.9 µM: HCT-15
inactive: K562 22.1 µM | SR 19.7 µM | CAKI-1 23.8 µM | SK-OV-3 18.1 µM | SN12C 17.5 µM | EKVX 16.5 µM | A498 15.6 µM | SW-620 22.9 µM | HT-29 21.4 µM | MDA-MB-231 15.7 µM | CCRF-CEM 2.39 µM | HOP-62 17.5 µM | MDA-MB-435 12.1 µM | UACC-257 19.5 µM | ACHN 19.9 µM | Hs-578T 24.9 µM | NCI-H23 21.6 µM | MOLT-4 5.43 µM | A549 30.8 µM | UO-31 21.4 µM | HOP-92 15.6 µM | TK-10 31.4 µM | KM12 33 µM | M14 19.9 µM | HL-60 20.9 µM | SNB-19 24.2 µM | OVCAR-5 31.7 µM | SF-268 16.8 µM | RXF 393 15.8 µM | BT-549 14.5 µM | MCF7 16.9 µM | OVCAR-8 22.8 µM | NCI-H522 3.53 µM | Malme-3M 29.5 µM | SF-295 22.3 µM | DU-145 39.8 µM | COLO 205 21.4 µM | SK-MEL-28 30.5 µM | OVCAR-3 17.7 µM | 786-0 17.5 µM | PC-3 14.8 µM | HCC 2998 23.4 µM | UACC-62 18.1 µM | SNB-75 16.1 µM | SF-539 26.4 µM | U-251 26.8 µM | LOX IMVI 30.5 µM | HCT-116 18 µM | OVCAR-4 25.1 µM | T47D 24.5 µM | RPMI-8226 12.2 µM | NCI-H460 23.7 µM | NCI-H226 23.2 µM
